Columns and labels:
αMI-domain = αMI-domain binding to cellulose-bound peptide libraries (SPOT, autoradiography, densitometry); details: for Densitometry, % (αMI-domain binding): 9-mer peptides, 3-residue offset, N-acetylated, cellulose-bound via (β-Ala)2, 10 μg/ml 125I-labeled αMI-domain (active form), TBS 1 mM MgCl2, percentage of binding to peptide #1 (100 %); for αMI-domain binding (in words): cellulose-bound 9-mer libraries, 125I-labeled αMI-domain
Protocol: Fig. 1 Screening of the peptide library spanning the sequence of dynorphin AB for αMI-domain binding. a, Amino acid sequence of dynorphin AB (residues 1–32). b, Cellulose membrane with the assembled peptide library consisting of 9-mer peptides with three-residue offset was incubated with ^125I-labeled αMI-domain and subjected to autoradiography followed by densitometry. The αMI-domain binding was observed as dark spots. Spot #10 contains only the β-Ala spacer. The αMI-domain binding was expressed as a percentage of binding to peptide #1, which was assigned a value 100 % and is shown as the numbers on the right of each sequence. The peptide energies that serve as a measure of probability each peptide can interact with the αMI-domain were calculated as described TEXT PRINTED IN THE PICTURE: (B) 1 ([…]): Densitometry, %: 100; Energy, J/mole: -13824 | (B) 2 ([…]): Densitometry, %: 100; Energy, J/mole: -17197 | (B) 3 ([…]): Densitometry, %: 75; Energy, J/mole: -9119 | (B) 4 ([…]): Densitometry, %: 60; Energy, J/mole: -650 | (B) 5 ([…]): Densitometry, %: 40; Energy, J/mole: -2880 | (B) 6 ([…]): Densitometry, %: 90; Energy, J/mole: -5355 | (B) 7 ([…]): Densitometry, %: 90; Energy, J/mole: -12541 | (B) 8 ([…]): Densitometry, %: 100; Energy, J/mole: -12344 | (B) 9 ([…]): Densitometry, %: 100; Energy, J/mole: -9738 | (B) 10 (β-alanine control): Densitometry, %: 0 | (B) Control peptide ([…]): Energy, J/mole: 11107
Peptide libraries derived from dynorphin AB assembled on cellulose membrane supports were prepared by parallel spot synthesis as previously described. Peptides were COOH-terminally attached to cellulose via a (β-Ala)2 spacer and were acetylated N-terminally. The membrane-bound peptides were tested for their ability to bind the αMI-domain according to a previously described procedure. In brief, the membrane was blocked with 1 % BSA and then incubated with 10 μg/ml of ^125I-labeled αMI-domain in TBS containing 1 mM MgCl2. After washing, the membrane was dried and the αMI-domain binding was visualized by autoradiography.
Additional file 1: Figure S1. Identification of residues in dynorphin A critical for α MI-domain binding. The dynorphin AB-based substitutional peptide libraries with single, double or triple mutations of basic residues were prepared by SPOT synthesis as described in Experimental Procedures. Mutated amino acid residues are shown in red. The membranes with synthesized peptide libraries were incubated with ^125I-labeled α MI-domain and subjected to autoradiography. The α MI-domain binding was analyzed by densitometry and expressed in arbitrary units with the strongest binding to wild-type peptides assigning a value of 4+. The peptides that partially lost their ability to bind the α MI-domain were grouped according to their activity and marked as 3+, 2+ and +. The peptides that lost their ability to bind the α MI-domain are marked with “NB “.

IC-21 macrophages = assay: Phagocytosis of Dyn A-coated latex beads by IC-21 macrophages; type: cell-based, murine; details: heparin 20 μg/ml, naloxone 10 μM, rat IgG2b isotype control
Protocol: Fig. 8 Effect of Dyn A on phagocytosis of latex beads. a, Fluorescent latex beads (1x10^9/ml) were preincubated with Dyn A (50 μg/ml) for 40 min at 37 °C. Soluble peptide was removed from the beads by high-speed centrifugation. Peptide-coated beads were incubated with adherent IC-21 macrophages for 30 min at 37 °C. Nonphagocytosed beads were removed from cells by washing with PBS. […] Rat IgG2b was used as an isotype control for anti-αM mAb M1/70. Phagocytosis was quantified for five random fields per well using a 20x objective. Phagocytosis of Dyn A-treated beads was assigned as 100 %.
A suspension of fluorescent […] latex beads (1x10^9/ml) (FluoSpheres sulfate microspheres, Life Technologies, Carlsbad, CA) was incubated with 50 μg/ml of Dyn A for 40 min at 37 °C, then unbound peptide was removed by centrifugation. IC-21 murine macrophages (5 × 10^5/ml) were adhered on the cover glass for 30 min and 3 × 10^6 of peptide-coated beads were added to adherent IC-21 cells. After incubating for 30 minutes at 37 °C, nonphagocytosed beads were separated from macrophages by washing with 3x1 ml PBS and phagocytosed beads were counted in the presence of trypan blue. […] The ratio of beads per macrophage was quantified by taking photographs of five fields for each well using a Leica DM4000 B microscope (Leica Microsystems, Buffalo Grove, IL) with a 20 × objective.

U937 monocytic cells = assay: Chemotaxis migration assay of U937 cells to Dyn A agarose gel; type: cell-based, human
Protocol: Fig. 7 Chemotactic response of U937 cells to Dyn A. a, schematic representation of the experimental format. U937 cells (5x10^4) were placed in the center of the coverslip between two agar gels, one containing Dyn A and control gel without Dyn A. After 2 h at 37 °C, a series of photographs was taken in the direction of migration at 1-mm intervals to count the number of migrating cells. b , representative images after 2 h of migration show the cells within the starting point (marked with a cross; right panels) and at the border of the Dyn A-containing agar drop (left panels). […] Two bottom panels show the experimental condition with no Dyn A gradient. c, quantification of U937 cells migrated from the initial point after 2 h based on the results shown in A (right panel). Migration of control untreated U937 cells that completely migrated from the initial point of cell placement was assigned a value of 100 %. In contrast, there was no cell migration without a Dyn A gradient (0 %). […] A representative experiment is shown. d, distribution of U937 cells between two gels: Dyn A-containing (on the left) and without Dyn A (on the right). “0” on abscissa corresponds to the initial point where cells were loaded and the numbers show the distance that cells migrated in both directions from the starting point. All cells in each of 10 consecutive fields towards the Dyn A-containing and empty gels were counted and plotted as a distance from the starting point
Chemotaxis assays using U937 monocytic cells were performed on 22 × 22 mm cover slips. 1 % agarose (Life Technologies, Carlsbad, CA) was dissolved in HBSS by heating. After cooling, the agarose solution was mixed with Dyn A to obtain a final concentration of 10 μM. A 10 μl drop of warm agarose solution containing Dyn A was placed at one corner of the cover glass at ~1.5 mm from the edge. A control agarose drop was placed diagonally at the opposite corner of the cover glass. Agarose was allowed to solidify for 5 min, and the cover glasses were placed into wells of the 6-well plate filled with 5 ml of RPMI 1640 + 10 % FBS. A 10-μl aliquot of U937 cells (5x10^4) was loaded in the center of the cover glass and the plate was incubated for 2 h at 37 °C in a humidified atmosphere containing 5 % CO2. In this experimental format, the cells sediment approximately 5 min after loading, forming an ~4 mm circle, and begin to migrate towards the Dyn A-containing agarose drop. […] The photographs were taken at 1-mm intervals in the direction of cell migration towards the dynorphin-containing or control agarose drops without dynorphin A. The number of cells at the starting point and in each of 10 consecutive fields towards the dynorphin-containing and empty gels were counted and plotted as a distance from the starting point.

Mac-1 = Mac-1 mediated cell adhesion, effect of naloxone; type: cell-based; details: control experiments, not shown
[1] = tested on: Mac-1 (Mac-1-HEK293 cells); assay: Inhibition of adhesion of Mac-1-HEK293 cells to fibrinogen by soluble peptides; type: cell-based, Human; details: soluble peptide, 2.5 μg/mL fibrinogen coating
Protocol: Fig. 4 Effect of soluble Dyn A on Mac-1-mediated cell adhesion to fibrinogen. a (left ordinate), calcein-labeled Mac-1-HEK293 cells were preincubated with different concentrations of dynorphin A (black bar), dynorphin B (open bar) or control peptide (gray bar) for […] at 22 °C and added to the wells of microtiter plates coated with 2.5 μg/mL fibrinogen. Cells were allowed to adhere for 30 minutes at 37 °C before removing nonadherent cells. […] Data are expressed as a percentage of total cell fluorescence
Adhesion assays were performed essentially as described previously. […] Cells were labeled with 10 μM calcein for 30 min at 37 °C and washed twice with Hanks’ Balanced salt solution (HBSS) containing 0.1 % BSA. Aliquots (100 μl) of labeled cells (5x10^5/ml) were added to each well and allowed to adhere for 30 min at 37 °C. The non-adherent cells were removed by two washes with PBS. Fluorescence was measured in a CytoFluorII fluorescence plate reader (Perceptive Biosystems, Framingham, MA). In inhibition experiments, cells were mixed with different concentrations of peptides, NIF or mAbs for 20 min at 22 °C before they were added to the wells coated with adhesive substrates. […] After aspirating the solution, labeled cells were added and cell adhesion was analyzed as above.

[2] = target: T1, Mac-1 (Mac-1-expressing HEK293 cells) (Homo sapiens, UniProt P05107+P11215); assay: Adhesion of Mac-1-HEK293 cells to immobilized peptide; type: cell-based; details: coated wells, calcein-labeled cells, 30 min at 37 °C
T1 construct: expressed in transfected cells
Protocol: (§1) For testing the role of glucosaminoglycans in cell adhesion, dynorphin A-coated wells were preincubated with 100 μl of 10 μg/ml of chondroitin sulfate A, chondroitin sulfate B and heparin. Aliquots (5x10^4cells) were added to the wells coated with 2 μM dynorphin A and adhesion was performed as described in A. Adhesion in the absence of Mac-1 inhibitors and glucosaminoglycans was assigned a value of 100 %. The data shown are the means ± S.E. from four separate experiments each with triplicate measurements. d , microtiter plate wells were coated with different concentrations of dynorphin B and adhesion of Mac-1-expressing and wild-type HEK293 cells was determined as described in A. The data shown are means of triplicate determinations, and error bars represent S.E. The figure is representative of 5 experiments. e. calcein-labeled Mac-1-HEK293 cells were preincubated without or with 10 μg/ml of mAb 44a and heparin, added to the wells coated with 20 μM of dynorphin B and adhesion was performed as described in A. Adhesion in the absence of inhibitors was assigned a value of 100 %.
(§2) Adhesion assays were performed essentially as described previously. […] Cells were labeled with 10 μM calcein for 30 min at 37 °C and washed twice with Hanks’ Balanced salt solution (HBSS) containing 0.1 % BSA. Aliquots (100 μl) of labeled cells (5x10^5/ml) were added to each well and allowed to adhere for 30 min at 37 °C. The non-adherent cells were removed by two washes with PBS. Fluorescence was measured in a CytoFluorII fluorescence plate reader (Perceptive Biosystems, Framingham, MA). In inhibition experiments, cells were mixed with different concentrations of peptides, NIF or mAbs for 20 min at 22 °C before they were added to the wells coated with adhesive substrates. In a separate set of experiments, after coating plates with dynorphins and post-coating with 1 % PVP, plates were incubated with 100 μl of 10 μg/ml chondroitin sulfate A, chondroitin sulfate B, or heparin for 20 min at 22 °C. After aspirating the solution, labeled cells were added and cell adhesion was analyzed as above.

[3] = tested on: Mac-1 (Mac-1-HEK293 cells); assay: Inhibition of adhesion of Mac-1-HEK293 cells to Dyn A; type: cell-based, Human; details: 2 μM Dyn A coating; for Inhibition of adhesion to Dyn A (in words): wells preincubated with glycosaminoglycan 10 μg/ml, 20 min, alone; for Inhibition of adhesion to Dyn A in combination with NIF (in words): glycosaminoglycan 10 μg/ml with NIF
Protocol: as §1, §2

Row | Molecule | Densitometry, % (αMI-domain binding) (αMI-domain) [%] | αMI-domain binding (in words) (αMI-domain) | further results
1 | GFLRRQFKV | 100 |  | 
2 | C=CCN1CC[C@]23c4c5ccc(O)c4O[C@H]2C(=O)CC[C@@]3(O)[C@H]1C5 [naloxone] |  |  | Effect on Dyn A-mediated phagocytosis (in words) (IC-21 macrophages): did not decrease the number of phagocytosed beads; Mean distance travelled by inhibitor-treated cells (U937 monocytic cells; Dyn A gradient, 2 h, mAb 44a 20 μg/ml or naloxone 10 μM): ~ 5 mm; Migration from initial point blocked (U937 monocytic cells; mAb 44a 20 μg/ml or naloxone 10 μM, 30 min preincubation, 2 h at 37 °C, representative experiment): ~ 20%; Arrival of inhibitor-treated cells at Dyn A-containing drop (U937 monocytic cells; mAb 44a 20 μg/ml or naloxone 10 μM, 2 h): only a few cells arrived; Cells remaining at the start (U937 monocytic cells; naloxone 10 μM, Dyn A gradient, 2 h): ~ 20%; Effect on Mac-1 mediated cell adhesion (Mac-1): does not affect Mac-1 mediated cell adhesion
3 | DIDPKLKWD [control peptide, purchased from AnaSpec; also mutant in substitutional library] |  |  | Inhibition of adhesion to fibrinogen (in words) [1]: only slightly inhibitory; Adhesion of Mac-1-HEK293 cells (in words) [2]: failed to support adhesion
4 | RYGGFLRRQ | 90 |  | 
5 | PKLKWDNQK | 60 | weakened their αMI-domain binding activity | 
6 | heparin |  |  | Effect on Dyn A-mediated phagocytosis (in words) (IC-21 macrophages): did not decrease the number of phagocytosed beads; Inhibition of adhesion to Dyn A (in words) [3]: slight inhibition
7 | RIRPKLKWD | 75 | weakened their αMI-domain binding activity | 
8 | YGGFLRRIR | 100 | highest affinities | 
9 | chondroitin sulfate B |  |  | Inhibition of adhesion to Dyn A in combination with NIF (in words) [3]: not exert a statistically significant inhibitory effect; Inhibition of adhesion to Dyn A (in words) [3]: not exert a statistically significant inhibitory effect
10 | KWDNQKRYG | 40 | weakened their αMI-domain binding activity | 
11 | chondroitin sulfate A |  |  | Inhibition of adhesion to Dyn A in combination with NIF (in words) [3]: not exert a statistically significant inhibitory effect; Inhibition of adhesion to Dyn A (in words) [3]: not exert a statistically significant inhibitory effect
12 | NQKRYGGFL | 90 |  | 
13 | RRQFKVVGG | 100 |  | 
14 | FLRRIRPKL | 100 | highest affinities | 

From PMC4481117 (Molecular Pain, 2015)
